According to patent publication US9365489B2, “Nitrooxy alkanoic acids and derivatives thereof in feed for reducing methane emission in ruminants, and/or to improve ruminant performance” (priority 2009, dated 2016):
Marks after values point to notes of the source that are not given here.

Legend:
[1] = test system: rumen fermentation parameters; experiment: In vivo test: rumen volatile fatty acids and ammonia nitrogen; conditions: rumen of sheep; for iso-valeric (VFA profile): control 1.60; for Valeric (VFA profile): control 1.69; for Butiric (VFA profile): control 3.69; for C2/C3 (acetate to propionate ratio): control 4.59; for iso-butiric (VFA profile): control 6.73; for Propionic (VFA profile): control 15.7; for NH3—N (ammonia Nitrogen concentration): control 42.5; for Acetic (VFA profile): control 70.6; for Total volatile fatty acid concentration: control 111.3
Text: (§1) The experimental design consisted of a cross-over design with 2 sheep per treatment in each period. The trial consisted in 3 consecutive periods of: 14 days of adaptation to the dose plus three consecutive days of methane measurements in chambers. This 14 days adaptation phase was established as the period necessary for wash out between different doses assayed in consecutive periods. During the last two days of methane measurements in chambers rumen contents samples were collected two hours after the morning feeding, sub sampled and immediately frozen prior DNA extraction and determination of volatile fatty acids and ammonia nitrogen concentration. Experimental animals were randomly allocated in three sub-groups of 2 animals and were assigned one of the three treatments (control, dose 1 and dose 2). The 3 sub-groups started the adaptation period with a gap of three days so they had the same number of adaptation days prior to methane measurement in the chambers. Each animal was held in cages with constant access to fresh water. The diet provided to the animals consisted of alfalfa hay chopped at 15 to 20 cm and concentrate in a proportion 1:1 at approximately 1.1 times the energy requirements maintenance level (Prieto et al, 1990) plus mineral-vitamin supplement. Fresh matter intake was monitored daily for each animal throughout the trial. The diet was provided to animals in two equal meals at 9.00 h and 14.00 h.
The additive was provided twice a day through the ruminal cannula at the same time as the diet. The corresponding amount to each dose was added into 10 grams of grounded concentrate and wrapped in cellulose paper immediately before it was placed in the rumen. In order to avoid the volatility of the active molecule, both additives were kept in a cold room at 4° C. where the daily process of dispensing it in the cellulose bags was carried out.
The doses were 50 (dose 1) and 500 (dose 2) mg/animal per day. The higher dose was reached after 3 days of gradual increases (50, 200 and 500 mg), so the whole adaptation period was consequently extended for 3 more days.
Volatile fatty acids were analysed by gas chromatography and ammonia N concentration by colorimetry according to (Cantalapiedra-Híjar et al. Journal of Animal Science. 87, 622-631, 2009).
Individual methane emissions, VFA profiles, ratio of acetate to propionate, ammonia N concentration, and log10 transformations of concentration of total bacteria, total protozoa and methanogenic archaea were analyzed for the following effects: additive dose, day of measurement, and their interaction using a repeated measures analysis of variance under the cross-over design arrangement of the experiment. The standard error of the mean (SEM) was computed for each analysis. No significant effect of the measuring day or its interaction with additive dose was detected in either experiments, so only the effect of the dose is included in the tables. Means were further compared using a least significant difference (LSD) procedure. The SPSS for Windows, version 14.0 (2005; SPSS Inc., Chicago, Ill.) was used for data entry and statistical analysis.

[2] = test system: total bacteria (16SrRNA); experiment: In vivo test: qPCR of total bacteria in rumen contents; conditions: rumen of sheep; for Total bacteria concentration: control 1.19 × 10^9; for Total bacteria, log10: control 9.03
Text: as §1
(§2) Samples of rumen contents were freeze-dried and thoroughly mixed by physical disruption using a bead beater (Mini-bead Beater; BioSpec Products, Bartlesville, Okla., USA) before DNA extraction, which was performed from approximately 50 mg sample using the QIAamp® DNA Stool Mini Kit (Qiagen Ltd, West Sussex, UK) following the manufacturer's instructions with the modification that a higher temperature (95° C.) was used for lysis incubation. DNA samples were used as templates for quantitative real-time PCR (qPCR) amplification. The numbers of total bacteria, total protozoa and total methanogenic archaea were quantified by Real Time—PCR (qPCR).
(§3) Different primer sets were used to amplify 16S rRNA gene-targeted total bacteria (Maeda et al. FEMS Inmunology and Medical Microbiology 39, 81-86, 2003), and protozoa (Sylvester et al. Journal Dairy Science. 88, 2083-2095 2005). […] The amplification efficiency was evaluated for each pair of primers with the following program: 5 min cycle at 95° C., 40 cycles at 95° C. for 15 s, 60° C. for 30 s, 72° C. for 55 s and, 75° C. during 6 s for fluorescent emission measures. The melting curve was built by increasing temperature from 55° C. to 95° C. and reading were taken every 5° C. […] The absolute amount of bacteria, protozoa and methanogenic archaea expressed as the number of DNA copies, was determined by using standards. […]

[3] = test system: methanogenic archaea; experiment: In vivo test: qPCR of methanogenic archaea in rumen contents; conditions: rumen of sheep; for Methanogenic archaea, log10: control 3.59; for Methanogenic archaea concentration: control 5.60 × 10^3
Text: as §1, §2, §3

CCOC(=O)CCO[N+](=O)[O-] [Ethyl-3-nitrooxy propionate]
iso-valeric (VFA profile) ([1]; Dose 1 (50 mg/animal per day)): 1.50 mol/100 mol | Valeric (VFA profile) ([1]; Dose 1 (50 mg/animal per day)): 1.55^a mol/100 mol | Butiric (VFA profile) ([1]; Dose 1 (50 mg/animal per day)): 3.50 mol/100 mol | C2/C3 (acetate to propionate ratio) ([1]; Dose 1 (50 mg/animal per day)): 4.26^ab | iso-butiric (VFA profile) ([1]; Dose 1 (50 mg/animal per day)): 5.57^a mol/100 mol | Propionic (VFA profile) ([1]; Dose 1 (50 mg/animal per day)): 16.8^ab mol/100 mol | NH3—N (ammonia Nitrogen concentration) ([1]; Dose 1 (50 mg/animal per day)): 40.5 mg/100 ml | Acetic (VFA profile) ([1]; Dose 1 (50 mg/animal per day)): 71.0^a mol/100 mol | Total volatile fatty acid concentration ([1]; Dose 1 (50 mg/animal per day)): 123.3^a mmol/l | iso-valeric (VFA profile) ([1]; Dose 2 (500 mg/animal per day)): 1.76 mol/100 mol | Valeric (VFA profile) ([1]; Dose 2 (500 mg/animal per day)): 2.42^b mol/100 mol | Butiric (VFA profile) ([1]; Dose 2 (500 mg/animal per day)): 3.47 mol/100 mol | C2/C3 (acetate to propionate ratio) ([1]; Dose 2 (500 mg/animal per day)): 3.57^b | iso-butiric (VFA profile) ([1]; Dose 2 (500 mg/animal per day)): 8.06^b mol/100 mol | Propionic (VFA profile) ([1]; Dose 2 (500 mg/animal per day)): 18.8^b mol/100 mol | NH3—N (ammonia Nitrogen concentration) ([1]; Dose 2 (500 mg/animal per day)): 40.1 mg/100 ml | Acetic (VFA profile) ([1]; Dose 2 (500 mg/animal per day)): 65.5^b mol/100 mol | Total volatile fatty acid concentration ([1]; Dose 2 (500 mg/animal per day)): 104.1^b mmol/l | Total bacteria concentration ([2]; Dose 1 (50 mg/animal per day)): 1.43 × 10^9 copy gene numbers/g fresh matter | Total bacteria, log10 ([2]; Dose 1 (50 mg/animal per day)): 9.08 log10 | Total bacteria concentration ([2]; Dose 2 (500 mg/animal per day)): 1.63 × 10^9 copy gene numbers/g fresh matter | Total bacteria, log10 ([2]; Dose 2 (500 mg/animal per day)): 9.18 log10 | Methanogenic archaea, log10 ([3]; Dose 1 (50 mg/animal per day)): 3.57 log10 | Methanogenic archaea concentration ([3]; Dose 1 (50 mg/animal per day)): 5.43 × 10^3 copy gene numbers/g fresh matter | Methanogenic archaea, log10 ([3]; Dose 2 (500 mg/animal per day)): 3.45 log10 | Methanogenic archaea concentration ([3]; Dose 2 (500 mg/animal per day)): 4.34 × 10^3 copy gene numbers/g fresh matter
